Data from US7863324B2, “Chroman-derived compounds for the treatment of cancer” (Wisconsin Alumni Research Foundation, priority 2003, dated 2011).
Where “and” joins values, the source holds several entries; their conditions need not be identical. Equal values may be shown once. Entries after “also recorded” stand apart in the source; their conditions may differ. Read-outs that look alike come from different tables or passages of the source.

Key:
LNCaP cells = assay: Cell growth analysis (Hoechst DNA assay), LNCaP; format: cell-based, human; details: 4 d
Description: (§1) Cell growth and viability analyses. Five thousand LNCaP or LAPC4 cells were plated in each well of 96-well plates (Costar) in 100 μl of DMEM/CSS. Two to 3 d after plating, cells were treated by adding 100 μl of DMEM/CSS containing 2× the concentration of the specified treatment to each well. Four d after treatment, the relative cell number was estimated by the determining DNA concentration of each well using a Hoechst-based fluorescence DNA assay, as previously described (23). Growth analysis with DU145 cells was performed similar to those with LNCaP and LAPC4 cells except DUI45 cells were initially seeded at 500 cells per well. Cell viability was determined by trypan blue exclusion and quantified by light microscopic analysis using a hemacytometer.

[1] = test system: PSA secretion from LNCaP cells; assay: Androgen-induced PSA secretion from LNCaP cells; format: cell-based, human; details: 48 h
Description: Determination of secreted PSA levels. LNCaP cells were cultured in 96 well plates (Costar) at 5,000 cells per well in DMEM/CSS 1 d before treatment. Forty-eight h after treatment, PSA levels in cell culture media were determined using the Tandem-MP PSA kit (Beckman Coulter, Inc.) according to manufacturer's instructions. PSA levels were normalized to DNA levels as determined using a Hoechst-based fluorescence DNA assay (23).

[2] = biological target: T1, androgen receptor in LNCaP cells (functional mutant AR) (Homo sapiens, UniProt P10275, T878A); assay: Androgen receptor binding competition assay (3H-R1881) in LNCaP cells
T1 construct: host or cells: LNCaP
T1 sequence (P10275 1-920 T878A): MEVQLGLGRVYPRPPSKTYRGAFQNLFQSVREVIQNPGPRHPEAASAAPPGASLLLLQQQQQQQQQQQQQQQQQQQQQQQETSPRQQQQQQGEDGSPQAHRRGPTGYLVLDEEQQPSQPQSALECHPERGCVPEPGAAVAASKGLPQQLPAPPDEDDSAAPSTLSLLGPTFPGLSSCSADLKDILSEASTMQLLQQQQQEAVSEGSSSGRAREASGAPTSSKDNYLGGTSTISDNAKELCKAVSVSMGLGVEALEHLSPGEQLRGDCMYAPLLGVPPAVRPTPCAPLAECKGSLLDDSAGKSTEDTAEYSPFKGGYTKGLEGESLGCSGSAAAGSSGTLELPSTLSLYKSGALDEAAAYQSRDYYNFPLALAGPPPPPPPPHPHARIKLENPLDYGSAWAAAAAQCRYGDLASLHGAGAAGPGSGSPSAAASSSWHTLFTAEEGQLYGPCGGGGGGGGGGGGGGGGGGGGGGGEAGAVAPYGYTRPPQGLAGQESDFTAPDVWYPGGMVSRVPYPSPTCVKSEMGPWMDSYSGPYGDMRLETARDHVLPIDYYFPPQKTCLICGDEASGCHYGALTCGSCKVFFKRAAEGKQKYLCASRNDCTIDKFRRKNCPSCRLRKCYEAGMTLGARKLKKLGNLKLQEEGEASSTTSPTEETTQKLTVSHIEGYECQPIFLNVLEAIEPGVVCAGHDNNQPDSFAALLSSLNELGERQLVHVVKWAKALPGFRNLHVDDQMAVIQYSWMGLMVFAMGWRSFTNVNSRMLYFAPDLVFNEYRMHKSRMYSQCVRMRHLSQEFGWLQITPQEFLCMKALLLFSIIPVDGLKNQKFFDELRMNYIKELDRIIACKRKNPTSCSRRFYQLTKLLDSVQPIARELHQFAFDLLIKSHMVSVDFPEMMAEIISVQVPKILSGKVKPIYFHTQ
Description: (§2) Androgen receptor binding competition assay. An androgen receptor binding competition assay was performed as previously described (22). LNCaP or LAPC4 prostate carcinoma cells were plated in 12-well tissue culture dishes (Costar, Corning, N.Y.) at 3.0×10^5 cells per well in phenol-red free DMEM/CSS 3 d prior to analysis. For competitor analysis, DMEM/CSS was removed by aspiration and replaced with 1 mL of phenol-red free DMEM containing 1 nM ^3H-R1881, 1 μM triamcinolone acetonide, and competitor at the specified concentrations for 2 h at 37° C. in a 5% CO2 incubator. […] Cells were washed twice with 1 mL phenol red-free DMEM and placed in 8.0 mL of ScintiVerse II Scintillation Cocktail (Fisher Scientific, Pittsburgh, Pa.) for determination of radioactivity (i.e., dpm) using a Beckman LS 6000TA Liquid Scintillation System (Beckman Instruments Inc., Fullerton, Calif.).

[3] = test system: AR protein levels in LNCaP cells; assay: Immunoblot analysis of AR protein levels; format: cell-based, human; details: 30 μM compound, 5 d, medium with 5% serum
Description: Immunoblot analysis of AR protein levels. LNCaP cells were plated at a density of 1×10^6 cells per 100 mm cell culture plate in 10 ml of DMEM/FBS and maintained in incubators at 37° C. in 5% CO2. […] Membranes were then incubated with a secondary horseradish peroxidase-conjugated anti-mouse antibody (Amersham Pharmacia Biotech, Piscataway, N.J.) and analyzed using the Enhanced Chemiluminescence Plus reagent (Amersham Pharmacia Biotech). Autoradiograms were prepared by exposing the blots to BioMax Light X-ray film (Eastman Kodak Co., Rochester, N.Y.) and developed using a CURIX 60 CP Processor (Agfa, Ridgefield Park, N.J.).

LAPC4 cells = assay: Cell growth analysis (Hoechst DNA assay), LAPC4; format: cell-based, human; details: medium with 5% serum, 4 d
Description: as §1

[4] = Description: The oral toxicity of PMCol was determined in 6 month-old male FVB mice. A single high oral dose of 1000 mg/kg PMCol in sesame oil was administered to 4 mice by gavage. Four control mice received only sesame oil by gavage (vehicle control). […] In a second study, four 6 month-old male FVB mice received 200 mg/kg PMCol daily in sesame oil by gavage for 10 days. Three mice receiving only sesame oil (vehicle control) were used as controls. Body weights were determined daily and all mice were autopsied to examine gross organ changes on day 11.
[5] = biological target: androgen receptor in LAPC4 cells (normal human AR) (Homo sapiens, UniProt P10275); assay: Androgen receptor binding competition assay (3H-R1881) in LAPC4 cells
Description: as §2

[6] = test system: MMTV promoter activity in LNCaP cells; assay: Androgen-stimulated MMTV promoter luciferase reporter assay, LNCaP; format: cell-based, human; details: for decrease of R1881-induced luciferase expression: 24 h
Description: (§3) Androgen-stimulated promoter reporter assay analysis. LNCaP and LAPC4 prostate carcinoma cell lines were cultured in 12-well cell culture plates (Costar) in DMEM/CSS 2 to 3 d before transfection. Androgen-induced trancriptional activation was determined using a reporter construct with an MMTV promoter that regulates the expression of luciferase (24). LNCaP and LAPC4 cells were transfected with the MMTV/luciferase plasmid using the Effectene Transfection Reagent (Qiagen Inc., Valencia, Calif.), according to the manufacturer's instructions. Twenty-four h after transfection, cells were treated with R1881 with or without test reagents at the specified concentrations. Cell extracts were acquired 24 to 48 h after treatment by removing medium, washing 1× with PBS, and obtaining extract with 200 μL of 1× Reporter Lysis Buffer (Promega, Madison, Wis.). Luciferase activity was determined as previously described (24).

Water solubility = format: physicochemical; details: cell culture studies
[7] = test system: MMTV promoter activity in LAPC4 cells; assay: Androgen-stimulated MMTV promoter luciferase reporter assay, LAPC4; format: cell-based, human
Description: as §3

[8] = test system: androgen receptor protein levels in LNCaP cells; details: cited from earlier work
[9] = general statement; cited from earlier work

Chain of androgen receptor in LAPC4 cells (normal human AR) (P10275 whole entry): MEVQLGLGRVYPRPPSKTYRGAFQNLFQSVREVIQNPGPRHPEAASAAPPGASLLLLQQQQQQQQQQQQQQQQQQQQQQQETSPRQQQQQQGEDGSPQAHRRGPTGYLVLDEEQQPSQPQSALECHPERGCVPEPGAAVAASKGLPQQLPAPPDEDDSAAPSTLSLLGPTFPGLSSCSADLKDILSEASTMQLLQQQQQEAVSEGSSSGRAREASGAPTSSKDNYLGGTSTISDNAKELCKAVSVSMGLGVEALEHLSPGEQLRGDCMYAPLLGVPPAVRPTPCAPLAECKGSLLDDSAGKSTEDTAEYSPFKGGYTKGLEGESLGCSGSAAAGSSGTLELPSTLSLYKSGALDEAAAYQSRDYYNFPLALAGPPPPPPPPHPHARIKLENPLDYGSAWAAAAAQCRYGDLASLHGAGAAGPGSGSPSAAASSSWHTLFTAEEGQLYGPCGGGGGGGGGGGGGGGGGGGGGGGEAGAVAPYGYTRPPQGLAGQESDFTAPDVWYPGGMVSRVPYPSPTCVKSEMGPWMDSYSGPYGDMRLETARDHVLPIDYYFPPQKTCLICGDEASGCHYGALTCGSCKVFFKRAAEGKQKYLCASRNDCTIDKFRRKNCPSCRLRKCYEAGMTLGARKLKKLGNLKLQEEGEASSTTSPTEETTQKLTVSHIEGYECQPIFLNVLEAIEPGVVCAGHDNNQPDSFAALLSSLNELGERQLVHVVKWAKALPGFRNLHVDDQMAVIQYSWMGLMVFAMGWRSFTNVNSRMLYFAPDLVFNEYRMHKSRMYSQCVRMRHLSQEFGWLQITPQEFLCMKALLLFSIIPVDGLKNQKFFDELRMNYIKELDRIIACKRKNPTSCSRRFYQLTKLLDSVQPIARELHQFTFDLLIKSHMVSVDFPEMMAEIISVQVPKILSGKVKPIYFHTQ

In the case of Cc1cc(C)c2c(c1C)OC(C)(C)CC2 [PMC, 2,2,5,7,8-pentamethylchroman, reference compound], the “shift of R1881-stimulated biphasic LNCaP growth curve” value (LNCaP cells; 30 μM compound) is reported as “more modest, but significant, shift to the right”, the “R1881 concentration giving in control cells the growth response equivalent to that at 0.3 nM R1881 under treatment” value (from here on “R1881 concentration giving”) (LNCaP cells; LNCaP, 30 μM compound) is reported as 0.03 nM and the “decrease of R1881-stimulated PSA levels” value ([1]; 1.0 nM R1881, 30 μM compound) is reported as 20%. For the same compound, the “anti-androgenic activity in 3H-R1881 competition compared with PMCol” value ([2]; LNCaP cells, FIG. 2A) was “less anti-androgenic activity than PMCol” and the AR protein levels [3] was “did not result in altered AR protein levels; also recorded: not significantly altered”.
For Cc1c(C)c2c(c(C)c1O)CCC(C)(C)O2 [PMCol, 2,2,5,7,8-pentamethyl-6-chromanol], the “concentration required to significantly reduce cell growth” value (LAPC4 cells) was ≥ 60 µM, the “LNCaP cell growth in presence of growth inhibitory R1881” value (LNCaP cells; 1.0 nM R1881, 10 μM to 30 μM compound) was “significant stimulation” and the “shift of R1881-stimulated biphasic LNCaP growth curve” value (LNCaP cells; 30 μM compound) was “shifted to the right”. For the same compound, the “concentration significantly inhibiting R1881-stimulated LNCaP growth” value (LNCaP cells; LNCaP, 0.1 nM R1881) was ≥ 10 µM, the “R1881 concentration giving” value (LNCaP cells; LNCaP, 30 μM compound) was 0.03 nM and the “concentration at which LNCaP cell growth was decreased” value (LNCaP cells; LNCaP, FIG. 3B) was ≥ 40 µM. The “growth modulatory (AR agonist) activity in androgen-deficient media” value (LNCaP cells; LNCaP, no R1881, 10 μM to 30 μM) was “no growth modulatory activity”, the “gross changes in organs at autopsy” value ([4]; 200 mg/kg daily by gavage for 10 days, autopsy day 11) was “No gross changes in organs” and the “change in animal body mass” value ([4]; mouse, in vivo) was “no significant change”. For the same compound, the LD50 ([4]; mouse, in vivo, po) was > 1000 mg/kg body weight, the “change in animal behavior or body mass” value ([4]; mouse, in vivo, po, 1000 mg/kg) was “No significant change” and the “decrease in 3H-R1881 binding” value ([5]; 30 μM compound) was 75%. For the same compound, the IC50 ([5]; against 1 nM R1881) was ~10 µM, the “inhibition of R1881-stimulated PSA release” value ([1]; 0.05 nM R1881, 30 μM compound) was “completely inhibited” and the “decrease of R1881-stimulated PSA levels” value ([1]; 1.0 nM R1881, 30 μM compound) was 80% and 81%. For the same compound, the “PSA release from LNCaP cells, compound alone” value ([1]; 30 μM, no R1881) was “not affected”, the inhibition at 30 µM ([1]; Homo sapiens, LNCaP, 0.05 nM R1881, 30 μM compound, read-out: inhibition of R1881-stimulated PSA release) was 100% and the “potency at competing for 3H-R1881 relative to bicalutamide (fold less potent)” value ([2]; LNCaP cells) was “approximately 10 fold”. The IC50 ([2]; LNCaP cells, against 1 nM 3H-R1881, estimated (FIG. 2A), read-out: IC50 for competition of 3H-R1881 binding) was ~10 µM and 7.2 µM, the IC50 ([2]; repeated studies, data not shown, read-out: IC50 values, repeated studies of competition for 3H-R1881 binding) was 5 to 15 µM and the AR protein levels [3] was “did not affect androgen receptor protein levels; also recorded: did not result in altered AR protein levels; also recorded: not significantly altered”. The “decrease of R1881-induced luciferase expression” value ([6]; 1.0 nM R1881, 25 μM compound) was 50%, the “decrease of R1881-induced luciferase expression” value ([6]; 1.0 nM R1881, 50 μM compound) was 70% and the “MMTV promoter activity, compound alone” value ([6]; no R1881) was “no effect”. The water solubility (Water solubility) was “sufficiently water soluble to permit studies in cell culture”.
In the case of C[C@]1(O)CC[C@H]2[C@@H]3CCC4=CC(=O)CCC4=C3C=C[C@@]21C [R1881, methyltrienolone, reference compound], the “increase in MMTV/LTR driven luciferase expression” value ([7]; 1.0 nM R1881) is reported as 20 fold, the “increase in PSA levels” value ([1]; 0.05 nM R1881) is reported as 3.1 fold and the “increase in PSA levels” value ([1]; 1.0 nM R1881) is reported as 12 fold. For the same compound, the “increase in luciferase expression” value ([6]; 1.0 nM R1881, 24 h) was 54 fold.
For CC(O)(CS(=O)(=O)c1ccc(F)cc1)C(=O)Nc1ccc(C#N)c(C(F)(F)F)c1 (stereo not shown) [bicalutamide, reference compound], the “decrease of R1881-stimulated luciferase expression” value ([7]; 1.0 nM R1881, 1 μM compound) was “approximately 50%”, the “R1881 concentration giving” value (LNCaP cells; LNCaP, 1 μM compound) was 0.03 nM and the “decrease of R1881-stimulated PSA levels” value ([1]; 1.0 nM R1881, 1 μM compound) was 43%. For the same compound, the “decrease of R1881-stimulated luciferase expression” value ([6]; 1.0 nM R1881, 1 μM compound) was “approximately 50%”.
In the case of COc1cc(/C=C/C(=O)CC(=O)/C=C/c2ccc(O)c(OC)c2)ccc1O [curcumin], the “effect on AR protein levels” value [8] is given as “down-regulate androgen receptor protein levels”.
For Cc1c(C)c2c(c(C)c1O)CC[C@@](C)(CCC[C@H](C)CCC[C@H](C)CCCC(C)C)O2 [vitamin E, α-tocopherol], the solubility in water [9] is given as “practically insoluble in water”.
